Key:
[1] = tested on: patients with LGS or DS; assay: Phase 3 randomized controlled trials of CBD versus placebo, adverse reactions in DS and LGS patients; assay type: in vivo, human; settings: for Subjects with pneumonia, %: LGS and DS; for Pneumonia incidence: controlled trials
Excerpt: (§1) Randomized, double-blind, parallel-group, trials of CBD versus placebo were undertaken and the adverse event experienced by the patients were collated and investigated.
(§2) In summary patients completed a 1-week screening period and a 4-week baseline period before they were randomized to receive CBD or equivalent volumes of placebo. Randomization was stratified by age.
(§3) Patients began a 4-week dose escalation period, titrating up to their assigned dose, before continuing on a stable dose of blinded investigational medicinal product (IMP) for 12 or 14 weeks.
(§4) Dose escalation for each patient was subject to the investigator's assessment of safety and tolerability. If a dose became poorly tolerated, the investigator may consider temporarily or permanently reducing the dose for the remainder of the study.
(§5) Clinic visits occurred for screening (Day-35), baseline (Day-28), randomization (Day 1) and, on Days 15 and 29 during titration and on Days 43, 57, 71 (telephone) and 85 until the end of treatment (Day 113). Safety telephone calls were completed every two days during titration, one week after the end of titration and, for patients not entering the open label extension (OLE), weekly from Visit 10 to Visit 12.
(§6) Safety and tolerability measures that were recorded included: adverse events; clinical laboratory parameters; 12-lead electrocardiogram (ECG); physical examination parameters (including height and weight); vital signs; Columbia-Suicide Severity Rating Scale (C-SSRS; 19+ years) or C-SSRS Children's (6-18 years) score, where applicable; number of inpatient hospitalizations due to epilepsy; abuse liability and effects on menstruation cycles (in females).
Table 1.1 below lists the adverse reactions that were reported in DS and LGS patients treated with CBD during the 14-week treatment period in the Phase 3 controlled trials.

[2] = tested on: patients with TSC; assay: Phase 3 randomized controlled trial of CBD versus placebo, adverse reactions in TSC patients; assay type: in vivo, human; settings: for Alanine aminotransferase increased, adverse reaction incidence / Anaemia, adverse reaction incidence / Aspartate aminotransferase increased, adverse reaction incidence / Decreased appetite, adverse reaction incidence / Diarrhoea, adverse reaction incidence / Eosinophil count increased, adverse reaction incidence / Fatigue, adverse reaction incidence / Gamma glutamyl transferase increased, adverse reaction incidence / Nausea, adverse reaction incidence / Pneumonia (grouped terms), adverse reaction incidence / Pyrexia, adverse reaction incidence / Rash, adverse reaction incidence / Somnolence, adverse reaction incidence / Urinary tract infection, adverse reaction incidence / Vomiting, adverse reaction incidence / Weight decreased, adverse reaction incidence / Subjects with pneumonia, %: TSC; for Alanine aminotransferase increased, adverse reaction incidence / Anaemia, adverse reaction incidence / Aspartate aminotransferase increased, adverse reaction incidence / Decreased appetite, adverse reaction incidence / Diarrhoea, adverse reaction incidence / Eosinophil count increased, adverse reaction incidence / Fatigue, adverse reaction incidence / Gamma glutamyl transferase increased, adverse reaction incidence / Nausea, adverse reaction incidence / Pneumonia (grouped terms), adverse reaction incidence / Pyrexia, adverse reaction incidence / Rash, adverse reaction incidence / Somnolence, adverse reaction incidence / Urinary tract infection, adverse reaction incidence / Vomiting, adverse reaction incidence / Weight decreased, adverse reaction incidence: 12-week treatment
Excerpt: as §1, §2, §3, §4, §5, §6
Table 1.12 below lists the adverse reactions that were reported in TSC patients treated with CBD during the 12-week treatment period in the Phase 3 controlled trial.

[3] = tested on: healthy adults and patients with LGS, DS, and TSC; assay: Controlled studies, serum creatinine; assay type: in vivo, human
Excerpt: CBD can cause elevations in serum creatinine. The mechanism has not yet been determined. In controlled studies in healthy adults and in patients with LGS, DS, and TSC, an increase in serum creatinine of approximately 10% was observed within 2 weeks of starting CBD-OS. The increase was reversible in healthy adults. Reversibility was not assessed in studies in LGS, DS, or TSC.

[4] = tested on: patients with LGS, DS, or TSC; assay: Double-blind placebo-controlled trials across LGS, DS and TSC, overall statements; assay type: in vivo, human
Excerpt: as §1, §2, §3, §6

[5] = tested on: adult patients; settings: 200 mg/day of pure CBD; four adult patients; cited from earlier work
[6] = tested on: adult patients with generalized epilepsy; settings: eight adult patients with generalized epilepsy; cited from earlier work
[7] = tested on: mice; settings: after administration of pro-convulsant drugs or an electric current; cited from earlier work
[8] = tested on: institutionalized adult patients; settings: 200 mg/day of pure CBD; twelve institutionalized adult patients; open label; cited from earlier work
[9] = 50 mg/kg/day group (N = 73; one-third did not reach 50 mg/kg/day)

C=C(C)[C@@H]1CCC(C)=C[C@H]1c1c(O)cc(CCCCC)cc1O [CBD, cannabidiol]
Subjects with pneumonia, % ([1]; With CLB, 10 mg/kg/day, N1 = 85): 14.1% | Subjects with pneumonia, % ([1]; With CLB, 20 mg/kg/day, N1 = 167): 7.2% | Subjects with pneumonia, % ([1]; Without CLB, 20 mg/kg/day, N2 = 140): 2.9% | Patients who developed a new laboratory-defined anaemia during the study ([1]; patients with LGS and DS, normal haemoglobin at baseline, later below lower limit of normal): 27% | Discontinuation incidence for transaminase elevation ([1]; patients with LGS or DS): dose responsive | Pneumonia incidence ([1]; with clobazam, 10 mg/kg/day CBD): 14% | Pneumonia incidence ([1]; with clobazam, 20 mg/kg/day CBD): 7% | Pneumonia incidence ([1]; without concomitant clobazam, 10 mg/kg/day CBD): 0% | Pneumonia incidence ([1]; without concomitant clobazam, 20 mg/kg/day CBD): 3% | Alanine aminotransferase increased, adverse reaction incidence ([2]; 25 mg/kg/day (N = 75)): 12% | Anaemia, adverse reaction incidence ([2]; 25 mg/kg/day (N = 75)): 7% | Aspartate aminotransferase increased, adverse reaction incidence ([2]; 25 mg/kg/day (N = 75)): 11% | Decreased appetite, adverse reaction incidence ([2]; 25 mg/kg/day (N = 75)): 20% | Diarrhoea, adverse reaction incidence ([2]; 25 mg/kg/day (N = 75)): 31% | Eosinophil count increased, adverse reaction incidence ([2]; 25 mg/kg/day (N = 75)): 5% | Fatigue, adverse reaction incidence ([2]; 25 mg/kg/day (N = 75)): 5% | Gamma glutamyl transferase increased, adverse reaction incidence ([2]; 25 mg/kg/day (N = 75)): 16% | Nausea, adverse reaction incidence ([2]; 25 mg/kg/day (N = 75)): 9% | Pneumonia (grouped terms), adverse reaction incidence ([2]; 25 mg/kg/day (N = 75)): 4% | Pyrexia, adverse reaction incidence ([2]; 25 mg/kg/day (N = 75)): 19% | Rash, adverse reaction incidence ([2]; 25 mg/kg/day (N = 75)): 7% | Somnolence, adverse reaction incidence ([2]; 25 mg/kg/day (N = 75)): 13% | Urinary tract infection, adverse reaction incidence ([2]; 25 mg/kg/day (N = 75)): 5% | Vomiting, adverse reaction incidence ([2]; 25 mg/kg/day (N = 75)): 17% | Weight decreased, adverse reaction incidence ([2]; 25 mg/kg/day (N = 75)): 7% | Patients who developed a new laboratory-defined anaemia during the study ([2]; 25 mg/kg/day, patients with TSC, normal haemoglobin at baseline, later below lower limit of normal): 38% | Alanine aminotransferase increased, adverse reaction incidence [2, 9]: 22% | Anaemia, adverse reaction incidence [2, 9]: 4% | Aspartate aminotransferase increased, adverse reaction incidence [2, 9]: 19% | Decreased appetite, adverse reaction incidence [2, 9]: 23% | Diarrhoea, adverse reaction incidence [2, 9]: 56% | Eosinophil count increased, adverse reaction incidence [2, 9]: 1% | Fatigue, adverse reaction incidence [2, 9]: 6% | Gamma glutamyl transferase increased, adverse reaction incidence [2, 9]: 14% | Nausea, adverse reaction incidence [2, 9]: 3% | Pneumonia (grouped terms), adverse reaction incidence [2, 9]: 3% | Pyrexia, adverse reaction incidence [2, 9]: 16% | Rash, adverse reaction incidence [2, 9]: 12% | Somnolence, adverse reaction incidence [2, 9]: 26% | Urinary tract infection, adverse reaction incidence [2, 9]: 1% | Vomiting, adverse reaction incidence [2, 9]: 18% | Weight decreased, adverse reaction incidence [2, 9]: 8% | Subjects with pneumonia, % ([2]; With CLB, 25 mg/kg/day, N1 = 18): 16.7% | Subjects with pneumonia, % ([2]; With CLB, 50 mg/kg/day, N1 = 20): 5.0% | Subjects with pneumonia, % ([2]; Without CLB, 50 mg/kg/day, N2 = 53): 1.9% | Discontinuation for transaminase elevation ([2]; controlled trial in TSC): dose responsive | Pneumonia incidence ([2]; with concomitant clobazam, 25 mg/kg/day, patients with TSC): 17% | Pneumonia incidence ([2]; without clobazam, 25 mg/kg/day, patients with TSC): 0% | Reversibility of the serum creatinine increase ([3]; healthy adults): reversible | Increase in serum creatinine ([3]; within 2 weeks of starting CBD-OS, healthy adults and patients with LGS, DS, and TSC): approximately 10% | Seizure frequency versus placebo ([4]; CBD alone or in combination with clobazam, across all treatment groups): significant reduction | Decrease in weight ([4]; patients with LGS, DS, or TSC): dose related | Incidence of pneumonia in patients concurrently taking clobazam in addition to CBD ([4]; versus patients not taking clobazam, LGS, DS and TSC): significantly higher | Patients who became seizure free [5]: two of the four | Number of patients with a marked reduction of seizures [6]: 4 | Prevention of seizures [7]: able to prevent seizures | Control of seizures [8]: ineffective
